Source: patent US20070249670A1, “Glycogen Phosphorylase Inhibitor Compounds and Pharmaceutical Compositions Thereof” (SMITHKLINE BEECHAM CORPORATION, priority 2004, published 2007)

What follows are compounds tested against T1, human liver glycogen phosphorylase a (HLGPa) (Homo sapiens, UniProt P06737) (assay: Human liver glycogen phosphorylase a enzymatic activity assay (coupled, fluorescent resorufin readout, with and without 10 mM glucose)). Details: human liver glycogen phosphorylase a enzymatic activity assay.
T1 construct: creating a full-length cDNA fused at the 5′ end to codons for methionine-glycine-alanine-histidine; 6xHis tag (leader Met-Gly-Ala-His6-Gly-Gly) (N); made in house; host or cells: E. coli (bacterial expression plasmid pTXK1007LTev)
T1 sequence (P06737 2-847 limits assumed): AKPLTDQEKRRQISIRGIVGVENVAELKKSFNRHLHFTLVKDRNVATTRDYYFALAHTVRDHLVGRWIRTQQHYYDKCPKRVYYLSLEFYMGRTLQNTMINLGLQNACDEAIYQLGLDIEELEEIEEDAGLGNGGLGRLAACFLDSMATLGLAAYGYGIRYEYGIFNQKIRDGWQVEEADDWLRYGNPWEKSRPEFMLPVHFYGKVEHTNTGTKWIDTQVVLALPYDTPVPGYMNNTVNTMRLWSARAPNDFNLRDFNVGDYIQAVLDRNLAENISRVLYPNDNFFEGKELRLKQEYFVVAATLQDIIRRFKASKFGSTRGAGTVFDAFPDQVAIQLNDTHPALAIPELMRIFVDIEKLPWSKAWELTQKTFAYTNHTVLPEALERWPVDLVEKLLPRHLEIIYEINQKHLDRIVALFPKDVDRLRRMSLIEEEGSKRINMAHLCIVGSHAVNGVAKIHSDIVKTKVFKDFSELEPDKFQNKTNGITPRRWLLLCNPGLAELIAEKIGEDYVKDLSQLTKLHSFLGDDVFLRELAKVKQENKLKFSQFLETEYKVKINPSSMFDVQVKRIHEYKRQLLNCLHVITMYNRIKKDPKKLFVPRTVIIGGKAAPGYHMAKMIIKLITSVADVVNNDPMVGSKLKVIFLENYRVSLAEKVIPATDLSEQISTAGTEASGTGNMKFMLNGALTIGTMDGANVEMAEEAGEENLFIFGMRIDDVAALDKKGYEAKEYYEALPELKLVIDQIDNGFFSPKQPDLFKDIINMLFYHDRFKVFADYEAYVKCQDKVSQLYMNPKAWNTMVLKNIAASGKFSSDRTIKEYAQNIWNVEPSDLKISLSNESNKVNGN
Assay type: biochemical

SMILES	IC50 [µM]
N#Cc1ccc(-c2cc(NC(=O)Nc3c(Cl)cccc3Cl)c(C(=O)O)s2)cc1 [Example 406, 5-(4-cyanophenyl)-3-({[(2,6-dichlorophenyl)amino]carbonyl}amino)-2-thiophenecarboxylic acid]	1.11
CCc1cccc(CC)c1NC(=O)Nc1ccccc1C(=O)N[C@@H](CC(=O)O)C(=O)O [Example 83, N-[2-({[(2,6-diethylphenyl)amino]carbonyl}amino)benzoyl]-L-aspartic acid]	34.1
Cc1cccc(C)c1NC(=O)Nc1cc2ccccc2cc1C(=O)N[C@@H](CCC(N)=O)C(=O)O [Example 26, N-[3-({[(2,6-dimethylphenyl)amino]carbonyl}amino)-2-naphthoyl]-L-glutamine]	3.01
O=C(Nc1cc(Cl)ccc1C(=O)N[C@H](C(=O)O)C1CCCCC1)Nc1c(Cl)cc(Cl)cc1Cl [Example 171, (2S)-({[4-Chloro-2-({[(2,4,6-trichlorophenyl)amino]carbonyl}amino)phenyl]carbonyl}amino)(cyclohexyl)-ethanoic acid]	0.33
O=C(Nc1cc(-c2cccnc2)sc1C(=O)O)Nc1c(Cl)cccc1Cl [Example 403, 3-({[(2,6-dichlorophenyl)amino]carbonyl}amino)-5-(3-pyridinyl)-2-thiophenecarboxylic acid]	4.22
O=C(Nc1cc(Cl)ccc1C(=O)N[C@H](C(=O)O)C1CCCCC1)Nc1c(Cl)cccc1Cl [Example 156, (2S)({[4chloro2({[(2,6dichlorophenyl)amino]carbonyl}amino)phenyl]carbonyl}amino)(cyclohexyl)ethanoic acid]	0.082
Cc1cc(C)c(NC(=O)Nc2cc(-c3ccc(O)cc3)ccc2C(=O)N[C@H](C(=O)O)C2CCCCC2)c(C)c1 [Example 194, (2S)-Cyclohexyl({[4′-hydroxy-3-({[(2,4,6-trimethylphenyl)amino]carbonyl}amino)-4-biphenylyl]carbonyl}amino)ethanoic acid]	0.011
O=C(O)C[C@H](NC(=O)c1c(NC(=O)Nc2c(Cl)cccc2Cl)sc2c1CCCC2)C(=O)O [Example 137, N-{[2-({[(2,6-dichlorophenyl)amino]carbonyl}amino)-4,5,6,7-tetrahydro-1-benzothien-3-yl]carbonyl}-L-aspartic acid]	4.15
O=C(Nc1sc2c(c1C(=O)N[C@H](C(=O)O)C1CCCCC1)CCCC2)Nc1c(Cl)cccc1Cl [Example 140, (2S)-cyclohexyl({[2-({[(2,6-dichlorophenyl)amino]carbonyl}amino)-4,5,6,7-tetrahydro-1-benzothien-3-yl]carbonyl}amino)acetic acid]	5.5

Results, then the compound that gave them:

IC50 [µM]	SMILES
0.11	COc1ccc(-c2cc(NC(=O)Nc3c(C)cc(C)cc3C)c(C(=O)N[C@@H](CC3CCCCC3)C(=O)O)s2)cc1 [Example 444, 3-cyclohexyl-N-{[5-[4-(methyloxy)phenyl]-3-({[(2,4,6-trimethylphenyl)amino]carbonyl}amino)-2-thienyl]carbonyl}-L-alanine]
0.134	Cc1cc(C)c(NC(=O)Nc2cc(F)ccc2C(=O)N[C@H](C(=O)O)[C@@H](C)OCc2ccccc2)c(C)c1 [Example 521, N-{[4-fluoro-2-({[(2,4,6-trimethylphenyl)amino]carbonyl}amino)phenyl]carbonyl}-O-(phenylmethyl)-L-threonine]
5.64	Cc1cc(F)ccc1-c1cc(C(=O)O)c(NC(=O)Nc2c(Cl)cccc2Cl)s1 [Example 420, 2-({[(2,6-dichlorophenyl)amino]carbonyl}amino)-5-(4-fluoro-2-methylphenyl)-3-thiophenecarboxylic acid]
0.012	Cc1cc(C)c(NC(=O)Nc2cc3ccccc3cc2C(=O)N[C@H](C(=O)O)c2ccc(O)cc2)c(C)c1 [Example 501, (2S)-(4-hydroxyphenyl)({[3-({[(2,4,6-trimethylphenyl)amino]carbonyl}amino)-2-naphthalenyl]carbonyl}amino)ethanoic acid]
0.33	Cc1cc(C)c(NC(=O)Nc2sc(-c3ccc(OC(F)(F)F)cc3)cc2C(=O)N[C@H](C(=O)O)C2CCCCC2)c(C)c1 [Example 431, (2S)-cyclohexyl({[5-{4-[(trifluoromethyl)oxy]phenyl}-2-({[(2,4,6-trimethylphenyl)amino]carbonyl}amino)-3-thienyl]carbonyl}amino)ethanoic acid]
1.78	COc1ccc(-c2nc(C(=O)N[C@H](C(=O)O)C3CCCCC3)c(NC(=O)Nc3c(C)cccc3C(C)C)s2)cc1 [Example 486]
0.004	CCCc1cc(C)c(NC(=O)Nc2cc(F)ccc2C(=O)N[C@@](C)(C(=O)O)C2CCCCC2)c(C)c1 [Example 479, 2-cyclohexyl-N-{[2-({[(2,6-dimethyl-4-propylphenyl)amino]carbonyl}amino)-4-fluorophenyl]carbonyl}-L-alanine]
0.16	Cc1cc(C)c(NC(=O)Nc2cc(F)ccc2C(=O)N[C@@](C)(C(=O)O)C2CCCCC2)c(C)c1 [Example 472, 2-cyclohexyl-N-{[4-fluoro-2-({[(2,4,6-trimethylphenyl)amino]carbonyl}amino)phenyl]carbonyl}-L-alanine]

Same assay, conditions: human liver glycogen phosphorylase a; table does not say whether with or without 10 mM glucose

IC50 [µM]	SMILES
5.56	Cc1cc(C)c(NC(=O)Nc2cc3ccccc3cc2C(=O)NC2(C(=O)O)CCC(NCc3ccccc3)CC2)c(C)c1 (centres unmarked) [Example 295, 4-[(phenylmethyl)amino]-1-({[3-({[(2,4,6-trimethylphenyl)amino]carbonyl}amino)-2-naphthalenyl]carbonyl}amino)cyclohexanecarboxylic acid]
6.89	COC(=O)C(NC(=O)c1cc2ccccc2cc1NC(=O)Nc1c(C)cc(C)cc1C)C1CCC(NC(=O)OC(C)(C)C)CC1 (mixture of isomers) [Example 349, (cis and trans)-methyl[4-({[(1,1-dimethylethyl)oxy]carbonyl}amino)cyclohexyl] ({[3-({[(2,4,6-trimethylphenyl)amino]carbonyl}amino)-2-naphthalenyl]carbonyl}amino)acetate]
0.061	Cc1cc(C)c(NC(=O)Nc2cc3ccccc3cc2C(=O)N[C@@H](CC(=O)O)C(=O)O)c(C)c1 [Example 354, N-{[3-({[(2,4,6-trimethylphenyl)amino]carbonyl}amino)-2-naphthalenyl]carbonyl}-L-aspartic acid]
0.023	Cc1cc(C)c(NC(=O)Nc2cc(-c3cccc(F)c3)ccc2C(=O)N[C@H](C(=O)O)[C@@H](C)OC(C)(C)C)c(C)c1 [Example 233, O-(1,1-Dimethylethyl)-N-{[3′-fluoro-3-({[(2,4,6-trimethylphenyl)amino]carbonyl}amino)-4-biphenylyl]carbonyl}-L-threonine]
5.26	Cc1cc(C)c(NC(=O)Nc2cc3ccccc3cc2C(=O)N[C@H](CC(=O)OC(C)(C)C)C2CCCCC2)c(C)c1 [Example 337, 1,1-dimethylethyl (3R)-3-cyclohexyl-3-({[3-({[(2,4,6-trimethylphenyl)amino]carbonyl}amino)-2-naphthalenyl]carbonyl}amino)propanoate]
0.003	COc1ccc(-c2ccc(C(=O)N[C@H](C(=O)O)C3CCCCC3)c(NC(=O)Nc3c(C)cc(C)cc3C)c2)cc1OC [Example 229, (2S)-({[3′,4′-Bis(methyloxy)-3-({[(2,4,6-trimethylphenyl)amino]carbonyl}amino)-4-biphenylyl]carbonyl}amino)(cyclohexyl)ethanoic acid]
